Laboratory results: publication PMC11984924, “Dipeptidic Phosphonates: Potent Inhibitors of Pseudomonas aeruginosa Elastase B Showing Efficacy in a Murine Keratitis Model” (Advanced Science, 2025)

Columns and labels:
Plasma stability, human = format: in vitro ADME; details: read-out: Plasma t1/2 Human
Protocol: To determine stability in plasma, the compound (1 µM) was incubated with pooled CD -1 […]
mouse/human/Wistar rat or Göttingen minipig plasma (Neo Biotech, Nanterre, France).
Samples were taken by mixing aliquots with 4 volumes of acetonitrile containing internal […]
standard (125 nM diphenhydramine). The plasma stability of procain, propantheline and diltiazem were determined in parallel to confirm the enzymatic activity. Samples were stored […]
on ice until the end of the incubation and precipitated protein was removed by centrifugation […]
(15 min, 4 °C, 4,000 g, two centrifugation steps). Concentration of the remaining test compound at the different time points was analyzed by HPLC-MS/MS (TSQ Quantum Access MAX, […]
Thermo Fisher, Dreieich, Germany) and used to determine half-life (t1/2).
Table S2: Additional in vitro ADMET data for selected dipeptides. n.d.: not determined.
Kinetic Liver S9 Clint [µL/mg/min] Plasma t1/2 [min] LogD7.4 […]
pH 7.4 [µM] Mouse Human Mouse Human

MMP-2 = biological target: T1, MMP-2 (Homo sapiens, UniProt P08253); test: MMP-2 inhibition (off-target); format: biochemical; details: read-out: MMP-2 % inhibition at 100 µM
T1 construct: purchased AnaSpec (Fremont, CA, USA)
T1 sequence (P08253 110-660): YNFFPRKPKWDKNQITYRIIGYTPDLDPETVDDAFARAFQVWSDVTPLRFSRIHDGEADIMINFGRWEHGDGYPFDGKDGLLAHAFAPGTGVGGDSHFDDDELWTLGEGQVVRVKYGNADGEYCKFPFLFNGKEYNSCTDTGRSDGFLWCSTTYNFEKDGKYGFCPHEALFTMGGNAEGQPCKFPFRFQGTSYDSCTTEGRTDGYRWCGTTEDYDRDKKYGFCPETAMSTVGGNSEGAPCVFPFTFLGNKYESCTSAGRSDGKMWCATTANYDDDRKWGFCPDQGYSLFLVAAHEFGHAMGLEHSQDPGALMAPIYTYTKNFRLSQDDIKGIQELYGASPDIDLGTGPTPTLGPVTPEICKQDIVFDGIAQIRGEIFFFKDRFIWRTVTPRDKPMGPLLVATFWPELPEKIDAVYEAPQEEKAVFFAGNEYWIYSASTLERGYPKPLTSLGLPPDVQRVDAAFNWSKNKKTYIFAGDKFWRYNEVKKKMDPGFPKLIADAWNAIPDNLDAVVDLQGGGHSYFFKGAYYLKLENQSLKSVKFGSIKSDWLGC
Protocol: 3.1 In vitro inhibition assays […]
(§1) MMPs, TACE). All in vitro inhibition assays were performed as described previously.[10] TACE inhibitor screening kits were purchased from Sigma-Aldrich (Saint Louis, MO). MMPs along with the SensoLyte 520 Generic MMP Activity Kit Fluorimetric were purchased from AnaSpec (Fremont, CA, USA). The assays were performed according to the guidelines of the respective manufacturer. Fluorescence signals were measured using a CLARIOstar plate reader (BMG Labtech, Ortenberg, Germany). […]
(§2) 3.8 Test against zinc metalloproteases MMP1–3 and TACE (ADAM17), and testing of
as §1, with “We selected a panel of human off -targets, including three human matrix metalloproteases (MMP-1, -2 and -3) and TACE (ADAM-17). These” for “MMPs, TACE). All in vitro inhibition”, “previously.[3] The” for “previously.[10]”, “kit was” for “kits were”, “Sigma -Aldrich” for “Sigma-Aldrich”
(§3) Table S6: Percent (%) inhibition of three MMPs (1 –3) and TACE (ADAM17) in presence of selected LasB inhibitors at 100 µM. Results are means and SD of at least two independent experiments. […]
(§4) Compound [% inhibition at [% inhibition at [% inhibition at [% inhibition at 100

MMP-1 = biological target: T2, MMP-1 (Homo sapiens, UniProt P03956); test: MMP-1 inhibition (off-target); format: biochemical; details: read-out: MMP-1 % inhibition at 100 µM
T2 construct: purchased AnaSpec (Fremont, CA, USA)
T2 sequence (P03956 100-469): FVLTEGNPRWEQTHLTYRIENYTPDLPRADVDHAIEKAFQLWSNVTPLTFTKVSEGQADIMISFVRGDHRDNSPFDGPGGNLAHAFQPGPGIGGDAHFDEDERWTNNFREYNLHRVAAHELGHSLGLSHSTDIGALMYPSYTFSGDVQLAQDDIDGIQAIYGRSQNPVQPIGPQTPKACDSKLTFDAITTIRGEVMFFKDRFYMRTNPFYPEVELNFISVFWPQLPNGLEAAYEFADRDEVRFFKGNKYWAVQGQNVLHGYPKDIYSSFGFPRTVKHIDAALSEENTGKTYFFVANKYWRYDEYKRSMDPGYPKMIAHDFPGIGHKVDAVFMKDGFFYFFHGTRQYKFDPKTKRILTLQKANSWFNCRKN
Protocol: 3.1 In vitro inhibition assays
as §1, with “LasB was expressed and purified as described previously.[3] In vitro inhibition assays (LasB, MMPs,” for “MMPs,”
as §2
as §1, with “We selected a panel of human off -targets, including three human matrix metalloproteases (MMP-1, -2 and -3) and TACE (ADAM-17). These” for “MMPs, TACE). All in vitro inhibition”, “previously.[3] The” for “previously.[10]”, “kit was” for “kits were”, “Sigma -Aldrich” for “Sigma-Aldrich”
as §3, §4

CC(=O)c1ccc(NC(=O)[C@@H](NC(=O)[C@@H](CC(C)C)P(=O)(O)O)C(C)C)cc1 [(R)‐30]
half-life at 1 µM (Plasma stability, human): > 2.5 h | inhibition at 100 µM (MMP-2): < 10% | inhibition at 100 µM (MMP-1): < 10%

CC(C)C[C@H](C(=O)N[C@H](C(=O)Nc1ccc(-n2ccnc2)cc1)C(C)C)P(=O)(O)O [(R)‐36]
half-life at 1 µM (Plasma stability, human): > 2.5 h | inhibition at 100 µM (MMP-2): < 10% | inhibition at 100 µM (MMP-1): < 10%

CC(=O)c1ccc(NC(=O)[C@@H](NC(=O)C(CC(C)C)P(=O)(O)O)C(C)C)cc1 (stereo partly drawn) [compound 30]
half-life at 1 µM (Plasma stability, human): > 2.5 h | inhibition at 100 µM (MMP-2): < 10% | inhibition at 100 µM (MMP-1): < 10%

CC(C)CC(C(=O)N[C@H](C(=O)Nc1ccc(Cl)c(Cl)c1)C1CCCCC1)P(=O)(O)O (stereo partly drawn) [compound 14]
half-life at 1 µM (Plasma stability, human): > 2.5 h | inhibition at 100 µM (MMP-2): < 10% | inhibition at 100 µM (MMP-1): < 10%

CC(C)CC(C(=O)N[C@H](C(=O)Nc1ccc(Cl)c(Cl)c1)C(C)C)P(=O)(O)O (stereo partly drawn) [compound 9]
half-life at 1 µM (Plasma stability, human): > 2.5 h | inhibition at 100 µM (MMP-2): < 10% | inhibition at 100 µM (MMP-1): 13 ± 1%

CC(C)CC(C(=O)N[C@H](C(=O)Nc1ccc(Cl)c(Cl)c1)C1CCC1)P(=O)(O)O (stereo partly drawn) [compound 13]
half-life at 1 µM (Plasma stability, human): > 2.5 h | inhibition at 100 µM (MMP-2): < 10% | inhibition at 100 µM (MMP-1): < 10%
